# According to article PMC7385619, “A triple action CDK4/6-PI3K-BET inhibitor with augmented cancer cell cytotoxicity” (Cell Discovery, 2020):
# Like-named read-outs stand apart in the source and are kept apart here.
# Key:
# Assay in all cases: KINOMEscan assay (Eurofins DiscoverX)
# Assay type in all cases: binding
# kinome (kinase panel) [1] = molecular target: T1, kinome (kinase panel) (Homo sapiens, UniProt Q9P2K8, S808G); conditions: read-out: Percent Control
# T1 construct: purchased Eurofins DiscoverX
# kinome (kinase panel) [2] = molecular target: T2, kinome (kinase panel) (Homo sapiens, UniProt P21860); conditions: ERBB3; 1000 nM; read-out: Percent Control
# T2 construct: purchased Eurofins DiscoverX
# kinome (kinase panel) [3] = molecular target: T3, kinome (kinase panel) (Homo sapiens, UniProt P14616); conditions: INSRR; 1000 nM; read-out: Percent Control
# T3 construct: purchased Eurofins DiscoverX
# kinome (kinase panel) [4] = molecular target: T4, kinome (kinase panel) (Homo sapiens, UniProt Q8IVH8); conditions: MAP4K3; 1000 nM; read-out: Percent Control
# T4 construct: purchased Eurofins DiscoverX
# kinome (kinase panel) [5] = molecular target: T5, kinome (kinase panel) (Homo sapiens, UniProt P35626); conditions: GRK3 (Entrez ADRBK2); 1000 nM; read-out: Percent Control
# T5 construct: purchased Eurofins DiscoverX
# T5 sequence (P35626 whole entry): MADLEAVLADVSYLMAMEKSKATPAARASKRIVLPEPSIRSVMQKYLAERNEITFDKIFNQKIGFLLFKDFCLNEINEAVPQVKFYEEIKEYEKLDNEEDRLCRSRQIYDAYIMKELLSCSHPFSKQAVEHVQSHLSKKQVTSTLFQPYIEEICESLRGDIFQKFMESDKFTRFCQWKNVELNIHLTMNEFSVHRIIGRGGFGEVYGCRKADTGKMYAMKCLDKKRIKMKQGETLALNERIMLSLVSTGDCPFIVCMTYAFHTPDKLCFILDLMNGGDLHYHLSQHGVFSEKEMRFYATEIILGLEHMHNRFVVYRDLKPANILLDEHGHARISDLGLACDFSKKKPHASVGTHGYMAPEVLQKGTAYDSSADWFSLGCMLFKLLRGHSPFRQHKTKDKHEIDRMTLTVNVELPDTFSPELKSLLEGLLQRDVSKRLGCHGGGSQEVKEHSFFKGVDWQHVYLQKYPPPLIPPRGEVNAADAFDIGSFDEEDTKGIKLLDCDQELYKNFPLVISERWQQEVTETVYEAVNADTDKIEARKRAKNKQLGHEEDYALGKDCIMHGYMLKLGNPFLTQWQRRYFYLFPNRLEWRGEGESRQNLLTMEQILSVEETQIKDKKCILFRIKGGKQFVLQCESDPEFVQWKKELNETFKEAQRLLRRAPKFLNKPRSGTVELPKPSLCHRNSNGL
# kinome (kinase panel) [6] = molecular target: T6, kinome (kinase panel) (Homo sapiens, UniProt O15146); conditions: MUSK; 1000 nM; read-out: Percent Control
# T6 construct: purchased Eurofins DiscoverX
# kinome (kinase panel) [7] = conditions: for Percent Control: 1000 nM
# kinome (kinase panel) [8] = molecular target: T7, kinome (kinase panel) (Homo sapiens, UniProt Q9P286); conditions: PAK7; 1000 nM; read-out: Percent Control
# T7 construct: purchased Eurofins DiscoverX
# T7 sequence (Q9P286 whole entry): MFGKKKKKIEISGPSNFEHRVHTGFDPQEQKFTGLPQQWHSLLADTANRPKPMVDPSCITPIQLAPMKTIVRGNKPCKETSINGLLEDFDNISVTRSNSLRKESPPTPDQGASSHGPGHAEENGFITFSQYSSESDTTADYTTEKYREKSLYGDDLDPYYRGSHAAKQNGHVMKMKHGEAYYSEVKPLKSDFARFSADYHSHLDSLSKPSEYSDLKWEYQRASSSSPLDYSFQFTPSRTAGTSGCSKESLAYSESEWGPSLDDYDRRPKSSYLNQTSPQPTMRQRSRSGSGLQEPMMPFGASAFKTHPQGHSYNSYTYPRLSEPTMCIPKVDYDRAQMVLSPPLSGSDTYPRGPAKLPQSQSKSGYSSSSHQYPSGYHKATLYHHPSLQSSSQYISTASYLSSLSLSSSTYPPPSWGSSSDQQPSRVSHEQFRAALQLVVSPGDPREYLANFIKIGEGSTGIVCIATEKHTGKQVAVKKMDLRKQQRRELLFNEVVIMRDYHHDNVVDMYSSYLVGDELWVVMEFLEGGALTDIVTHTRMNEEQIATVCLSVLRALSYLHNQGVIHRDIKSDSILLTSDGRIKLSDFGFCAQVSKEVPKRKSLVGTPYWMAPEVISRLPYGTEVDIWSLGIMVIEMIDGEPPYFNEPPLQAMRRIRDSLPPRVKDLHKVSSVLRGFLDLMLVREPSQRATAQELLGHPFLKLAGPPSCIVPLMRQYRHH
# kinome (kinase panel) [9] = molecular target: T8, kinome (kinase panel) (Homo sapiens, UniProt Q8TDX7); conditions: NEK7; 1000 nM; read-out: Percent Control
# T8 construct: purchased Eurofins DiscoverX
# kinome (kinase panel) [10] = molecular target: T9, kinome (kinase panel) (Homo sapiens, UniProt Q00535); conditions: CDK5; 1000 nM; read-out: Percent Control
# T9 construct: purchased Eurofins DiscoverX
# kinome (kinase panel) [11] = molecular target: T10, kinome (kinase panel) (Homo sapiens, UniProt P21127); conditions: CDC2L1 (Entrez CDK11B); 1000 nM; read-out: Percent Control
# T10 construct: purchased Eurofins DiscoverX
# kinome (kinase panel) [12] = molecular target: T11, kinome (kinase panel) (Homo sapiens, UniProt P19784); conditions: CSNK2A2; 1000 nM; read-out: Percent Control
# T11 construct: purchased Eurofins DiscoverX
# kinome (kinase panel) [13] = molecular target: T12, kinome (kinase panel) (Plasmodium falciparum, UniProt P61075); conditions: PFPK5(P.falciparum) (Entrez MAL13P1.279); 1000 nM; read-out: Percent Control
# T12 construct: purchased Eurofins DiscoverX
# kinome (kinase panel) [14] = molecular target: T13, kinome (kinase panel) (Homo sapiens, UniProt P80192); conditions: MLK1 (Entrez MAP3K9); 1000 nM; read-out: Percent Control
# T13 construct: purchased Eurofins DiscoverX
# kinome (kinase panel) [15] = molecular target: T14, kinome (kinase panel) (Homo sapiens, UniProt Q16832); conditions: DDR2; 1000 nM; read-out: Percent Control
# T14 construct: purchased Eurofins DiscoverX
# T14 sequence (Q16832 22-855): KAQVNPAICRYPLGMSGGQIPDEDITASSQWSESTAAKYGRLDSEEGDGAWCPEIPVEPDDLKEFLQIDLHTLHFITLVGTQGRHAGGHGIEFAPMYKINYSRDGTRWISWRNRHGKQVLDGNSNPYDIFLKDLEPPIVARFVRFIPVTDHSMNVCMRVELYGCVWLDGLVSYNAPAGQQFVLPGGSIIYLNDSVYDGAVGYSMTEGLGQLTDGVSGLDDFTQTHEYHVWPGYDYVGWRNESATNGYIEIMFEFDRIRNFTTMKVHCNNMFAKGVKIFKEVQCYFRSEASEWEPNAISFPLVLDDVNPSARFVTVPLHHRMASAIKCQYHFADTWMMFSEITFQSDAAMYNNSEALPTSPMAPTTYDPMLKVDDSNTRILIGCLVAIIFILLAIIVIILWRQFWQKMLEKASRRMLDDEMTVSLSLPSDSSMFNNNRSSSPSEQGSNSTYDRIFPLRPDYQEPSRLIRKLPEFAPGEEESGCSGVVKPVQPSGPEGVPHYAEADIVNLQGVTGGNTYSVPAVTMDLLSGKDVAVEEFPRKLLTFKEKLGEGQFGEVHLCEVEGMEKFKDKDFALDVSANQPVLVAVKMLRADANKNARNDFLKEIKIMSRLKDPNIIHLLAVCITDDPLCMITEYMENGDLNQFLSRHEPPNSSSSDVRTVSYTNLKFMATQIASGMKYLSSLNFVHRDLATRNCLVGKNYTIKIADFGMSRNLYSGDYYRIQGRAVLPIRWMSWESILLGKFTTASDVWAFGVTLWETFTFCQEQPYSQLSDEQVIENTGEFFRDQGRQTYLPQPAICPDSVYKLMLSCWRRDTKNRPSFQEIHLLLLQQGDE
# kinome (kinase panel) [16] = molecular target: T15, kinome (kinase panel) (Homo sapiens, UniProt Q32MK0); conditions: MLCK (Entrez MYLK3); 1000 nM; read-out: Percent Control
# T15 construct: purchased Eurofins DiscoverX
# kinome (kinase panel) [17] = molecular target: T16, kinome (kinase panel) (Homo sapiens, UniProt P36888, N841I); conditions: […]; 1000 nM; read-out: Percent Control
# T16 construct: purchased Eurofins DiscoverX
# kinome (kinase panel) [18] = molecular target: T17, kinome (kinase panel) (Homo sapiens, UniProt P24723); conditions: PRKCH; 1000 nM; read-out: Percent Control
# T17 construct: purchased Eurofins DiscoverX
# kinome (kinase panel) [19] = molecular target: T18, kinome (kinase panel) (Homo sapiens, UniProt P10721, D816H); conditions: […]; 1000 nM; read-out: Percent Control
# T18 construct: purchased Eurofins DiscoverX
# kinome (kinase panel) [20] = molecular target: T19, kinome (kinase panel) (Homo sapiens, UniProt Q14289); conditions: PYK2 (Entrez PTK2B); 1000 nM; read-out: Percent Control
# T19 construct: purchased Eurofins DiscoverX
# kinome (kinase panel) [21] = molecular target: T20, kinome (kinase panel) (Homo sapiens, UniProt Q9H2G2); conditions: SLK; 1000 nM; read-out: Percent Control
# T20 construct: purchased Eurofins DiscoverX
# kinome (kinase panel) [22] = molecular target: T21, kinome (kinase panel) (Homo sapiens, UniProt Q6ZWH5); conditions: NEK10; 1000 nM; read-out: Percent Control
# T21 construct: purchased Eurofins DiscoverX
# kinome (kinase panel) [23] = molecular target: T22, kinome (kinase panel) (Homo sapiens, UniProt Q9Y3S1); conditions: WNK2; 1000 nM; read-out: Percent Control
# T22 construct: purchased Eurofins DiscoverX
# kinome (kinase panel) [24] = molecular target: T23, kinome (kinase panel) (Homo sapiens, UniProt Q8IWQ3); conditions: BRSK2; 1000 nM; read-out: Percent Control
# T23 construct: purchased Eurofins DiscoverX
# kinome (kinase panel) [25] = molecular target: T24, kinome (kinase panel) (Homo sapiens, UniProt P42345); conditions: MTOR; 1000 nM; read-out: Percent Control
# T24 construct: purchased Eurofins DiscoverX
# kinome (kinase panel) [26] = molecular target: T25, kinome (kinase panel) (Homo sapiens, UniProt P54753); conditions: EPHB3; 1000 nM; read-out: Percent Control
# T25 construct: purchased Eurofins DiscoverX
# kinome (kinase panel) [27] = molecular target: T26, kinome (kinase panel) (Homo sapiens, UniProt Q9Y6M4); conditions: CSNK1G3; 1000 nM; read-out: Percent Control
# T26 construct: purchased Eurofins DiscoverX
# T26 sequence (Q9Y6M4 whole entry): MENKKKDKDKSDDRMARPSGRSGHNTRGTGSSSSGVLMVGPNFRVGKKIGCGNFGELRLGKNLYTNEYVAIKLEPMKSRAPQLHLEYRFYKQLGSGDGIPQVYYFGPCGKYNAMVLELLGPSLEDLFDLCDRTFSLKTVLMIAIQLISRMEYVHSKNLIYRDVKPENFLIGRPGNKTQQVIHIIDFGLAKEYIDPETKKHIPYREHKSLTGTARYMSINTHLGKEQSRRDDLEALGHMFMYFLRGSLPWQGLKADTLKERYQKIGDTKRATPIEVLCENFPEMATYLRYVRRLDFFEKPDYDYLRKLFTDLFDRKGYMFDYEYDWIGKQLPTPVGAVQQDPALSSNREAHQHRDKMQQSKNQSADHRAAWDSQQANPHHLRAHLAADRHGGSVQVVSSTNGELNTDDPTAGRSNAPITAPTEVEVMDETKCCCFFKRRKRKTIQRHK
# kinome (kinase panel) [28] = molecular target: T27, kinome (kinase panel) (Homo sapiens, UniProt P54760); conditions: EPHB4; 1000 nM; read-out: Percent Control
# T27 construct: purchased Eurofins DiscoverX
# kinome (kinase panel) [29] = molecular target: T28, kinome (kinase panel) (Homo sapiens, UniProt O75116); conditions: ROCK2; 1000 nM; read-out: Percent Control
# T28 construct: purchased Eurofins DiscoverX
# T28 sequence (O75116 whole entry): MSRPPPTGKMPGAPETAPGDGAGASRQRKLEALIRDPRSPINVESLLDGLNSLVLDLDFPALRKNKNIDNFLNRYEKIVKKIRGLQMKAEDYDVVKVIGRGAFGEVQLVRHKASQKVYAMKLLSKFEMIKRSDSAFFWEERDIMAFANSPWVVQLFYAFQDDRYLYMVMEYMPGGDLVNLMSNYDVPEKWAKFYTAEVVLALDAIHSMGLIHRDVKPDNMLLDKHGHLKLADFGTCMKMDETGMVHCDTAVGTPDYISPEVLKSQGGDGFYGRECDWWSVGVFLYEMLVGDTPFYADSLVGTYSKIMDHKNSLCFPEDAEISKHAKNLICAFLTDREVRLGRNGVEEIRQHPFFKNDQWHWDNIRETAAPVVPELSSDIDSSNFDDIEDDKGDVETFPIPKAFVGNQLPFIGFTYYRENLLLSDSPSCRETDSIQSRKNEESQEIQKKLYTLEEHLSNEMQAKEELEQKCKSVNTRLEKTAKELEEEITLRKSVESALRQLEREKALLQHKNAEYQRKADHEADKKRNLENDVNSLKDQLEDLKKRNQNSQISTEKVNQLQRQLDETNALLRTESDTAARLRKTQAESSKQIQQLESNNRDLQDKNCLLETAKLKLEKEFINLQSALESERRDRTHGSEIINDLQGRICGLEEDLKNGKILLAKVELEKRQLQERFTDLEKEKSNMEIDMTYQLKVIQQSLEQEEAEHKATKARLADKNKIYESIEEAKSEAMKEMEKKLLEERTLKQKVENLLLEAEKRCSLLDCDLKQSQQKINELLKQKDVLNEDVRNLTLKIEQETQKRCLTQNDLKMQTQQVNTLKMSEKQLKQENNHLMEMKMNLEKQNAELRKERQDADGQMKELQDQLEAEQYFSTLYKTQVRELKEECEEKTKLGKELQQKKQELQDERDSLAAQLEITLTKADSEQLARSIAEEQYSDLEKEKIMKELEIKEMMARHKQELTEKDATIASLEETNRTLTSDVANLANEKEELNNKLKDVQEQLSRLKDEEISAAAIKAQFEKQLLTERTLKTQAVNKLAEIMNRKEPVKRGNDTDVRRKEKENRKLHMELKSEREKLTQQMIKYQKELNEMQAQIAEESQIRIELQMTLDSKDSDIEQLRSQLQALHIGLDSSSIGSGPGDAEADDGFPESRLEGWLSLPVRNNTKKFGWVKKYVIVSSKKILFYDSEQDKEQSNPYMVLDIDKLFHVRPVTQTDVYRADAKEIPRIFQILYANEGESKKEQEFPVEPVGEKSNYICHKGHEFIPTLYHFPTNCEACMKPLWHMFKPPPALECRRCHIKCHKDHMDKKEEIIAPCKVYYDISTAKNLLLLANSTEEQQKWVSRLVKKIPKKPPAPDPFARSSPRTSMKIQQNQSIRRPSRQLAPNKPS
# kinome (kinase panel) [30] = molecular target: T29, kinome (kinase panel) (Homo sapiens, UniProt P36888); conditions: 1000 nM, read-out: Percent Control
# T29 construct: purchased Eurofins DiscoverX
# kinome (kinase panel) [31] = molecular target: T30, kinome (kinase panel) (Homo sapiens, UniProt P29322); conditions: EPHA8; 1000 nM; read-out: Percent Control
# T30 construct: purchased Eurofins DiscoverX
# kinome (kinase panel) [32] = molecular target: T31, kinome (kinase panel) (Homo sapiens, UniProt P54764); conditions: EPHA4; 1000 nM; read-out: Percent Control
# T31 construct: purchased Eurofins DiscoverX
# T31 sequence (P54764 20-986): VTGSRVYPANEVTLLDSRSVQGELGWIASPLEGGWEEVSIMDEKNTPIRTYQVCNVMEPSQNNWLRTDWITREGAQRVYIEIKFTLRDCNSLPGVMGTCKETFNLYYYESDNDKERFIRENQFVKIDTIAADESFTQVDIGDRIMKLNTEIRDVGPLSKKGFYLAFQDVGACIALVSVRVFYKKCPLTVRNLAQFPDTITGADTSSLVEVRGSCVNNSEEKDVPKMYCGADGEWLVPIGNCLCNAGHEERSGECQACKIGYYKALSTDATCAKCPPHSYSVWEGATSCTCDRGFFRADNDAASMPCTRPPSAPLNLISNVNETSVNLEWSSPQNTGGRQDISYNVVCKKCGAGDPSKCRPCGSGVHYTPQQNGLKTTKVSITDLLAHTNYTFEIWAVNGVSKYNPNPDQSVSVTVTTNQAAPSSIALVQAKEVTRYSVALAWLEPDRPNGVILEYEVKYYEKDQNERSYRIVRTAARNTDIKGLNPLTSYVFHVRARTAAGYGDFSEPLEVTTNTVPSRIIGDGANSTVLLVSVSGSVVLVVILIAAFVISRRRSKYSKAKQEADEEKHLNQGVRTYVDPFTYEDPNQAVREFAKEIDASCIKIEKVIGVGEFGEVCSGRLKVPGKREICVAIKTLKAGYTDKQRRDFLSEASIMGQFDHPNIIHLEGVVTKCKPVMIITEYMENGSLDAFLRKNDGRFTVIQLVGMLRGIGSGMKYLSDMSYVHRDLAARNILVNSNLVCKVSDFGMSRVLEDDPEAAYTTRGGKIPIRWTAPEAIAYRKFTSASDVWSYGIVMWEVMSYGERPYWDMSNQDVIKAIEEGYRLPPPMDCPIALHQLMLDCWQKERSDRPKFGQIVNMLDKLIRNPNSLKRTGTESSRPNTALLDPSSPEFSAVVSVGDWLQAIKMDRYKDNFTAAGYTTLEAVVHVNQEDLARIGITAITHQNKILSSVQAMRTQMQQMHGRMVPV
smiles,measurement,setting,value
CN(C)C(=O)c1cc2cnc(Nc3ccc(-c4csc5c(=O)cc(N6CCOCC6)oc45)cc3)nc2n1C1CCCC1 [SRX3177],remaining binding at 1 µM,kinome (kinase panel) [1],71%
same,remaining binding at 1 µM,kinome (kinase panel) [2],59%
same,remaining binding at 1 µM,kinome (kinase panel) [3],100%
same,remaining binding at 1 µM,kinome (kinase panel) [4],100%
same,remaining binding at 1 µM,kinome (kinase panel) [5],46%
same,remaining binding at 1 µM,kinome (kinase panel) [6],95%
same,specificity in KINOMEscan,kinome (kinase panel) [7],lack of off-targeting
same,Percent Control,"kinome (kinase panel) [7]; EGFR(L747-E749del, A750P)",100
same,Percent Control,"kinome (kinase panel) [7]; EGFR(L747-S752del, P753S)",65
same,Percent Control,"kinome (kinase panel) [7]; EGFR(L747-T751del,Sins)",75
same,Percent Control,kinome (kinase panel) [7]; FLT3(ITD),49
same,Percent Control,"kinome (kinase panel) [7]; FLT3(ITD,D835V)",27
same,Percent Control,"kinome (kinase panel) [7]; FLT3(ITD,F691L)",45
same,remaining binding at 1 µM,kinome (kinase panel) [8],89%
same,remaining binding at 1 µM,kinome (kinase panel) [9],100%
same,remaining binding at 1 µM,kinome (kinase panel) [10],90%
same,remaining binding at 1 µM,kinome (kinase panel) [11],99%
same,remaining binding at 1 µM,kinome (kinase panel) [12],5.7%
same,remaining binding at 1 µM,kinome (kinase panel) [13],96%
same,remaining binding at 1 µM,kinome (kinase panel) [14],62%
same,remaining binding at 1 µM,kinome (kinase panel) [15],56%
same,remaining binding at 1 µM,kinome (kinase panel) [16],100%
same,remaining binding at 1 µM,kinome (kinase panel) [17],7.2%
same,remaining binding at 1 µM,kinome (kinase panel) [18],97%
same,remaining binding at 1 µM,kinome (kinase panel) [19],28%
same,remaining binding at 1 µM,kinome (kinase panel) [20],100%
same,remaining binding at 1 µM,kinome (kinase panel) [21],38%
same,remaining binding at 1 µM,kinome (kinase panel) [22],100%
same,remaining binding at 1 µM,kinome (kinase panel) [23],77%
same,remaining binding at 1 µM,kinome (kinase panel) [24],100%
same,remaining binding at 1 µM,kinome (kinase panel) [25],79%
same,remaining binding at 1 µM,kinome (kinase panel) [26],97%
same,remaining binding at 1 µM,kinome (kinase panel) [27],100%
same,remaining binding at 1 µM,kinome (kinase panel) [28],98%
same,remaining binding at 1 µM,kinome (kinase panel) [29],46%
same,remaining binding at 1 µM,kinome (kinase panel) [30]; FLT3-autoinhibited,63%
same,remaining binding at 1 µM,kinome (kinase panel) [30]; FLT3,26%
same,remaining binding at 1 µM,kinome (kinase panel) [31],92%
same,remaining binding at 1 µM,kinome (kinase panel) [32],98%
